Data reported in patent publication US6689349B1, “Skin protection agents containing a fragment mixture produced from hyaluronic acid by hydrolysis” (esparma GmbH, priority 1998, dated 2004).

Columns and labels:
HaCaT keratinocytes = experiment: toxicity test: DNA synthesis performance by BrdU incorporation; format: cell-based, human; settings: 24-hour incubation
Procedure: In order to characterise the influence of hyaluronic acid fragments of differing relative molar mass on the proliferation behaviour of human keratinocytes (HaCaT keratinocytes—made available by Prof. Dr. Norbert E. Fusenig: Deutsches Krebsforschungsinstitut Heidelberg, Germany), the DNA synthesis performance is determined with the aid of BrdU incorporation (Cell Proliferation ELISA, BrdU calorimetric—Boehringer Mannheim, Mannheim, Germany) into the DNA after a 24-hour period of incubation. For the following hyaluronic acid fragments examined, no toxic reaction of the cells could be observed.

[1] = lucigenin-reinforced xanthine oxidase test (radical binding, chemiluminescence); format: biochemical; settings: cell-free system
Procedure: The property of binding reducing radicals, is measured in cell-free systems with a lucigenin-reinforced xanthine oxidase test on the basis of the conversion of hypoxanthine to uric acid. The O2-radicals produced in this process can be detected with lucigenin by relative chemiluminescence measurement. By the radical scavengers present, the O2-radicals are neutralised and the chemiluminescence yield reduced. […] An amount of 1 mg of the hyaluronic acid fragment according to the invention with a relative molar mass of 100 to 160 kD has a radical-binding activity which corresponds to that of 200 to 400 μg allopurinol. Hyaluronic acid with a relative molar mass of 1,800 kD has, on the other hand, a negligible radical-binding activity (Pierce, L. A., W. O. Tarnow-Mordi and I. A, Cree: Antibiotics Effects on Phagocyte Chemilunieszence in Vitro. In J. Clin. Lab. Res.- (1995) 25, 93-98).

With hyaluronic acid the “toxic reaction of the cells / tolerance (DNA synthesis performance, BrdU incorporation)” value (HaCaT keratinocytes) was “very good tolerance” and the radical-binding activity [1] was “negligible”.
